Data from patent publication US7101915B1, “P-terphenyl compounds” (Shionogi & Co., Ltd., priority 1996, dated 2006).
In brackets after ≈: the same amount, converted by molar mass. Marks after values point to notes of the source that are not given here. One block for each compound: values may come before it.

Columns and labels:
[1] = tested on: IL-5 production of mouse T cell strain EL-4 (TPA); experiment: Suppressive effect on the cytokine production of mouse T cell strain EL-4: IL-5; format: cell-based; details: EL-4, TPA 10 ng/ml, 24 hours, ELISA
Method: (§1) Experiment 8 Suppressive Effect on the Cytokine Production of a Mouse T Cell Strain EL-4 In 48-well plate were added 2×10^5 mouse T cell strain EL-4 which were suspended in 0.2 ml of 1% fetal bovine serum-added RPMI 1640 medium (2 mM of sodium bicarbonate, 50 units/ml of penicillin, 50 μg/ml of streptomycin and 5×10^−5 M of 2-mercaptoethanol were added) and the compound of the present invention of a predetermined concentration. TPA was added as a cell stimulater at a final concentration of 10 ng/ml to adjust a final volume of each well to 0.4 ml. Each compound of the present invention was dissolved in DMSO and diluted with the above RPMI 1640 medium, and then for added at a final concentration of 100 ng/ml or less. The cells in the 48-well plate were cultivated in an incubator keeping the humidity 100%, carbon dioxide 5% and air 95% at 37° C. for 24 hours to collect a supernatant of each well. The amount of IL-2, IL-4 and IL-5 released in the medium of each well were measured with the ELISA kit (Amersham K. K.) to be taken as an index of the cytokine production of the cells. TPA free group (-TPA) was used as a control.

[2] = tested on: IgM production of mouse spleen lymphocytes; experiment: Suppressive effect on antibody production of mouse spleen lymphocytes: IgM; format: cell-based, BALB/c (nu/nu) mice; details: LPS + IL-4, 10 days
Method: (§2) Experiment 6 Suppressive Effect on Antibody Production of Mouse Spleen Lymphocytes 1. Experimental Method 1) Animals
(§3) BALB/c (nu/nu) mice were bought from Japan SLC, Inc. (Shizuoka) and 7 weeks old-male mice were used.
(§4) RPMI medium (Nissui Pharmaceutical Co., Ltd.) containing 10% fetal bovine serum (HyClone Lab.) inactivated at 56° C. for 30 minutes, penicillin (100 units/ml) and streptomycin (100 μg/ml) (GIBCO) was used for experiments.
(§5) Each of the compounds was dissolved in dimethylsulfoxide (Nakaraitesk) at […] and diluted with the medium to adjust a final concentration to 0.1 μg/ml −10 μg/ml.
(§6) 4) Mouse Spleen Lymphocytes […]
(§7) In 96-well cultivating plate (Sumitomo Bakelite Company Limited) mouse spleen lymphocytes were inoculated 2×10^5 cells per well. […] After the cultivation for 10 days, the amount of the antibody in a supernatant was quantified by ELISA method.
(§8) 7) Quantification of the IgG1, IgG2a and IgM Antibodies
(§9) In 96-well plate 50 μl of 10 μg/ml Goat Anti-Mouse Ig (IgM+G+A, H+ L) (Southern Biotechnology, Birmingham) was added and the plate was coated at 4° C. overnight. […] After washing three times with PBST, 100 μl of culture supernatant which was diluted with PBS or 100 μl of an antibody standard solution (Mouse IgG1 standard, Mouse IgG2a standard, Mouse IgM standard, BETHYL Laboratories) of a pre-determined concentration was added and incubated for 1 hour. […]

[3] = tested on: IgG1 production of mouse spleen lymphocytes; experiment: Suppressive effect on antibody production of mouse spleen lymphocytes: IgG1; format: cell-based, BALB/c (nu/nu) mice; details: LPS + IL-4, 10 days
Method: as §2, §3, §4, §5, §6, §7, §8, §9

[4] = tested on: IgG2a production of mouse spleen lymphocytes; experiment: Suppressive effect on antibody production of mouse spleen lymphocytes: IgG2a; format: cell-based, BALB/c (nu/nu) mice; details: LPS + IL-4, 10 days
Method: as §2, §3, §4, §5, §6, §7, §8, §9

[5] = tested on: IL-2 production of mouse T cell strain EL-4 (TPA); experiment: Suppressive effect on the cytokine production of mouse T cell strain EL-4: IL-2; format: cell-based; details: EL-4, TPA 10 ng/ml, 24 hours, ELISA
Method: as §1

[6] = tested on: IgE production of mouse spleen lymphocytes (lipopolysaccharide, IL-4); experiment: Suppressive effect on antibody production of mouse spleen lymphocytes: IgE; format: cell-based, BALB/c (nu/nu) mice; details: LPS + IL-4, 10 days
Method: as §2, §3, §4, §5
4) Mouse Spleen Lymphocytes
A spleen of mouse was taken out and put in a cultivating schale which was filled with Hanks' solution. The spleen was crushed and the cells were pushed out from the organ and filtered through a metal mesh (200 mesh). After the collected cell suspension was washed by centrifugation with sterile Hanks' solution (Nissui Pharmaceutical Co., Ltd.), sterile distilled water was added. […]
as §7
6) Quantification of the IgE Antibody
A commercial mouse IgE EIA kit (Yamasa Shoyu Co., Ltd.) was used for the quantification of the IgE. […]

[7] = tested on: IL-4 production of mouse T cell strain EL-4 (TPA); experiment: Suppressive effect on the cytokine production of mouse T cell strain EL-4: IL-4; format: cell-based; details: EL-4, TPA 10 ng/ml, 24 hours, ELISA
Method: as §1

[8] = tested on: anti-OVA IgE antibody titer (PCA titer); experiment: Suppressive effect on the IgE production against ovalbumin (OVA), PCA titer; format: in vivo, BALB/c mice; details: untreated group 9-12
Method: Experiment 4 Suppressive Effect on the IgE Production Against Ovalbumin (OVA)
BALB/c mice (female, 8-10 weeks old) and Wistar rats (female, 8-10 weeks old) which were bought from Japan SLC, Inc. (Shizuoka) were used.
BALB/c mice were immunized by an intraperitoneal administration of 0.2 ml suspension of 2 μg of ovalbumin (OVA) and 2 mg of aluminium hydroxide gel in physiological saline. After 10 days, blood was drawn from hearts, sera were separated and stocked at −40° C. till the measurement of an IgE antibody titer.
After the compound of the present invention was dissolved or suspended in N, N-dimethylacetoamide, the mixture was diluted 20 times with miglyol 812 neutral oil. The obtained solution was orally administered to mice at 0.1 ml per mouse. The administration was continued for 10 days from the immunizing day to the day before drawing blood. IPD-1151-T (a compound described in Jpn. Pharmacol. (1993) 61, 31–39) and a compound No. 36 (a compound 36 described in J. Med. Chem. (1997) 40: 395–407) were examined as controls by the same method.
4) Measurement of Anti-OVA IgE Antibody Titer (PCA Titer)
The samples 2-fold diluted with physiological saline were prepared from the obtained mouse serum and each 50 μl of the solution was intradermally injected to backs of Wistar rats which previously hair cut. After 24 hours, a passive cutaneous anaphylaxis reaction (PCA) was induced by an intravenous injection of 0.5 ml of physiological saline containing 1 mg of OVA and 5 mg of Evans' blue dye. After 30 minutes, the rats were sacrified and the highest dilution rate of the serum giving bluing with a diameter of more than 5 mm was recorded as the PCA titer. For example, when a serum is positive for the PCA reaction till […], the anti-OVA IgE antibody titer of the mouse is defined as 7.

[9] = tested on: C3H/HeN mouse splenocytes stimulated with lipopolysaccharide (LPS); experiment: Suppressive effect on mitogenic activity of mouse splenocytes in vitro, LPS as mitogen (MTT); format: cell-based; details: LPS 10 μg/ml as mitogen, 3 days
Method: (§10) Experiment 1 Suppressive Effect on a Mitogenic Activity of Mouse Splenocytes In Vitro
(§11) In 96-well microtiter plate 5×10^5 C3H/HeN mouse splenocytes suspended in 0.1 ml of 10% fetal bovine serum-fortified RPMI 1640 medium containing 2 mM of sodium bicarbonate, 50 units/ml of penicillin, 50 μg/ml of streptomycin and 5×10^−5 M of 2-mercaptoethanol were added. Then, 5 μg/ml of Concanavalin A (Con A) or 10 μg/ml of lipopolysaccharide (LPS) as a mitogen and the compound of a pre-determined concentration of the present invention were added to each well so that a final volume of each well reached 0.2 ml. Each compound of the present invention was dissolved in dimethylsulfoxide (DMSO) and diluted with the above RPMI 1640 medium to adjust the final concentration of 100 ng/ml or less. The splenocytes in the 96-well microtiter plate were cultivated at 37° C. for 3 days in an incubator keeping the humidity 100%, carbon dioxide 5% and air 95%. Then, 25 μl of 6 mg/ml MTT [3-(4,5-dimethylthiazol-2-yl)-2,5-diphenyltetrazolium bromide] (Sigma) was added to the each well and cultivated at 37° C. for 4 hours under the same conditions. After the cultivation, 50 μl of 0.02 N hydrochloric acid in 20% sodium dodecyl sulfate (SDS) was added to formazan generated and left at 37° C. for 24 hours for dissolving formazan. An absorption intensity (OD) of formazan generated in proportion to the number of living cells was measured with an immunoreader (InterMed) equipped with a 570 nm filter (The Journal of Immunological Method, 65, 55-63, 1983). The 50% inhibitory concentration of a cell proliferation (IC 50) was calculated from a correlation between the concentration of the compound of the present invention and the absorption intensity.

[10] = tested on: C3H/HeN mouse splenocytes stimulated with Concanavalin A (Con A); experiment: Suppressive effect on mitogenic activity of mouse splenocytes in vitro, Con A as mitogen (MTT); format: cell-based; details: Con A 5 μg/ml as mitogen, 3 days
Method: as §10, §11

[11] = tested on: mouse thymoma strain EL4 cells; experiment: Anti-proliferative activity on EL4 cells (MTT); format: cell-based; details: 3 days
Method: Experiment 2 Anti-Proliferative Activity on EL4 Cells
In 96-well microtiter plate 4×10^4/0.1 ml of mouse thymoma strain EL4 cells were added and 0.1 ml of the compound of the present invention was added to the mixture so that the concentration was in the range of 0-5,000 ng/ml. After the cultivation for 3 days, the IC50 was calculated by the MTT method as described in Experiment 1.

[12] = tested on: BGG-specific IgE in a serum; experiment: Suppressive effect on the antibody production against bovine γ globulin (BGG), sandwich ELISA; format: in vivo, BALB/c mice; details: 100 mg/kg p.o. every day, serum after 21 days
Method: Experiment 3 Suppressive Effect on the Antibody Production Against Bovine γ Globulin (BGG)
On an immunizing day and 7 days after, 50 μg of BGG was subcutaneously inoculated to backs of BALB/c mice (male, 6-8 weeks old) for inducing an immune reaction. After the compound of the present invention was dissolved or suspended in N, N-dimethylacetoamide, the mixture was diluted with miglyol 812 neutral oil. A proper volume of the compound was orally administered (p.o.) to mice every day from the next day of the immunizing. A two hundredth weight to body weight of miglyol was administered to mice in a control group. After 21 days, blood was drawn from each mouse and a serum was separated. BGG-specific IgE in a serum was measured by the sandwich ELISA method using a BGG-coating plate. The suppressive rate of IgE production was calculated from the dilution rate of the serum which has the same absorption intensity as that of the control group for judging the effect of the compound of the present invention.

Structure (SMILES): CC(C)=CCNc1ccc(-c2cc(C)c(-c3ccc(N(C)C)cc3)cc2C)cc1F [Compound I-925]
PCA Titer ([8]; 40 mg/kg orally for 10 days): 1** | melting point: 100 to 102 °C

Structure (SMILES): CCOCC(O)COc1ccc(NC(=O)CC[S+](C)C)cc1.Cc1ccc(S(=O)(=O)[O-])cc1 (centres unmarked) [IPD-1151-T, Suplatast Tosilate, reference compound]
PCA Titer ([8]; 50 mg/kg orally for 10 days): 9.8

Structure (SMILES): O=C(Cc1ccc(Oc2ccc3cc(OCc4ccccc4)ccc3c2)cc1)Nc1ccccc1C(=O)O [No.36]
PCA Titer ([8]; 10 mg/kg orally for 10 days): 10.4

Continued, in another order:

IC50 IL-5 [1]: 15 ng/mL (≈ 0.0367 µM) | IC50 IgM [2]: 4200 ng/mL | IC50 IgG1 [3]: 2600 ng/mL | IC50 IgG2a [4]: 4900 ng/mL | IC50 IL-2 [5]: 500 ng/mL (≈ 1.22 µM) | IC50 IgE [6]: 0.044 ng/mL | IC50 IL-4 [7]: 20 ng/mL (≈ 0.049 µM)
Structure (SMILES): COc1cc(-c2ccc(OCC=C(C)C)c(F)c2)c(OC)cc1-c1ccc(O)cc1 [Compound I-73]

EL-4 IC50 [11]: 91.4 ng/mL
Structure (SMILES): COc1cc(-c2ccc(NCC=C(C)C)c(F)c2)c(OC)cc1-c1ccc(N(C)C)cc1 [Compound I-484]
PCA Titer ([8]; 40 mg/kg orally for 10 days): <0 | LPS IC50 [9]: 32.2 ng/mL | ConA IC50 [10]: 14.7 ng/mL

EL-4 IC50 [11]: 5.0 ng/mL
Structure (SMILES): CC(C)=CCOc1ccc(-c2cc(C)c(-c3ccc(O)cc3)cc2C)cc1O [Compound I-525]
Suppressive rate of antigen-specific IgE [12]: >95% | LPS IC50 [9]: 1.11 ng/mL | ConA IC50 [10]: 0.76 ng/mL

IC50 ([11]; Mus musculus, 72 h, read-out: EL-4 IC50): 4.37 ng/mL (≈ 0.00791 µM) | melting point: 166 to 168 °C
Structure (SMILES): COc1cc(-c2ccc(O)cc2)c(OC)c(O)c1-c1ccc(OCC=C(Br)Br)c(O)c1 [Compound I-931]
IC50 ([9]; Mus musculus, Splenocyte, 72 h): 5.76 ng/mL (≈ 0.0104 µM) | IC50 ([10]; Mus musculus, Splenocyte, 72 h, read-out: ConA IC50): 2.93 ng/mL (≈ 0.00531 µM)
